# Entries after “also recorded” stand apart in the source; their conditions may differ. Where two headings read alike, the source gives them in different places.
# Legend:
# [1] = test system: norfloxacin-resistant clinical isolate of E. coli; test: MIC, microdilution, norfloxacin-resistant clinical isolate of E. coli; assay type: cell-based, Escherichia coli; details: read-out: MIC E. coli (norfloxacin-resistant strain)
# [2] = test system: K. pneumoniae (ATCC 10031); test: MIC, K. pneumoniae ATCC 10031; assay type: cell-based, Klebsiella pneumoniae
# P. aeruginosa (PAO1) = test: MIC, microdilution, P. aeruginosa PAO1; assay type: cell-based, Pseudomonas aeruginosa
# E. faecalis (ATCC 19433) = test: MIC, E. faecalis ATCC 19433; assay type: cell-based, Enterococcus faecalis
# [3] = test system: M. tuberculosis (MC26020); test: microbe, parasite or virus in culture; assay type: cell-based, Mycobacterium tuberculosis; details: for MIC: Mycobacterium tuberculosis, read-out: MIC M. tuberculosis (MC26020)
# E. coli (W3110) = test: MIC, microdilution, E. coli W3110; assay type: cell-based, Escherichia coli; details: for MIC: Gram-negative strain, average of duplicate experiments, read-out: MIC E. coli (W3110)
# S. aureus (CCUG1800T) = test: MIC, microdilution, S. aureus CCUG1800T; assay type: cell-based, Staphylococcus aureus; details: read-out: MIC S. aureus (CCUG1800T)
# [4] = test system: S. aureus (ATCC 43300) MRSA; test: MIC, microdilution, MRSA ATCC 43300; assay type: cell-based, Staphylococcus aureus; details: norfloxacin-resistant strain
# E. coli [5] = test: microbe, parasite or virus in culture; details: Escherichia coli, read-out: MICC (MIC of the test compound alone)
# E. coli [6] = details: for FICC (fractional inhibitory concentration of the test compound): MICCcheckerboard/MICC; for Outcome: checkerboard with mupirocin; for FICM (MICMcheckerboard/MICM): mupirocin alone 64 µg/mL; for FICI (fractional inhibitory concentration index): with mupirocin, FICC+FICM
# B. subtilis DSM402 [7] = test: Peptidoglycan integrity assay (acetic acid/methanol fixation); details: 1x MIC; 30 min (cell wall inhibitors) or 60 min
# [8] = test system: MraY in B. subtilis TNVS284; test: MraY localization; details: 1x MIC; 30 min (vancomycin) or 1 h
# E. coli W3110 = test: Bacterial cytological profiling (BCP) in E. coli W3110; assay type: cell-based, Escherichia coli
# [9] = test system: PonA in B. subtilis TNVS45; test: PonA localization; details: 1x MIC; 30 min (vancomycin) or 1 h
# E. coli BCB472 = test: GlpT localization (inner membrane) in E. coli BCB472; details: 1x MIC, 1 h; GFP-tagged membrane protein
# B. subtilis DSM402 [10] = details: for μM (concentration used, 1x MIC): Table 2, cells treated with 1x MIC
# [11] = test system: MurG in B. subtilis TNVS175; test: MurG localization; assay type: cell-based, Bacillus subtilis; details: 1x MIC; 30 min (vancomycin) or 1 h;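 further: normal MurG forms small membrane spots and peptidoglycan inhibition gives large clusters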
# [12] = test system: PbpB in B. subtilis EKB46; test: PbpB localization; details: 1x MIC; 30 min (vancomycin) or 1 h
# B. subtilis DSM402 [13] = test: Bacterial cytological profiling (BCP) in B. subtilis DSM402; assay type: cell-based, Bacillus subtilis
# MreB in B. subtilis MW10 = test: MreB mobility assay; assay type: cell-based, Bacillus subtilis; details: B. subtilis MW10, 1 h of antibiotic exposure
# Method: MreB is an actin homologue that forms filamentous structures along the lateral axis of the cell. It moves along the length of the cells in a spiraling pattern thereby driving lateral peptidoglycan synthesis.[36],[37] MreB mobility is sensitive to inhibition of peptidoglycan synthesis and so far, every cell wall synthesis inhibitor we tested abolished MreB movement (see Figure S70 for examples).
# Expression of msfGFP-MreB was induced with 0.3% xylose. Pictures were taken after 1 h of antibiotic exposure. Two images of the same field of view were recorded 30 s apart and overlaid in ImageJ to visualize MreB mobility. A perfect overlap (yellow) indicates stalled MreB movement, while distinct red and green foci are indicative of MreB mobility. Scale bar 2 μm.
# Fig. S70: MreB motility in B. subtilis MW10 after treatment with different cell wall synthesis inhibitors. Expression of GFP-MreB was induced with 0.3% xylose. Cells were treated with 1x […]
# Two images of the same field of view were recorded 30 sec apart and overlaid in ImageJ to visualize MreB mobility. A perfect overlap (yellow) indicates stalled MreB movement while distinct red and green spots are indicative of MreB mobility. Scale bar 2 µm.
# [14] = test system: cell wall biosynthesis in B. subtilis DSM402; test: Summary of cell wall synthesis experiments; assay type: cell-based, Bacillus subtilis
# [15] = Klebsiella pneumoniae, ATCC10031
# [16] = Enterococcus faecalis, ATCC19433
# [17] = 1x MIC, 1 h, indicates cell lysis
# [18] = interpretation of BCP in E. coli
# [19] = interpretation of BCP in B. subtilis
smiles,measurement,setting,value
CCn1cc(C(=O)O)c(=O)c2cc(F)c(N3CCN(C(=O)CN4CCCCC4)CC3)cc21 [7a],MIC,[1]; Escherichia coli,> 1150 µM
same,MIC,[2]; [15],144 µM
same,MIC,"P. aeruginosa (PAO1); Pseudomonas aeruginosa, PAO1",> 1150 µM
same,MIC,E. faecalis (ATCC 19433); [16],4.49 µM
same,MIC,[3],72 µM
same,MIC,E. coli (W3110); Escherichia coli,36 µM
same,MIC,S. aureus (CCUG1800T); Staphylococcus aureus,8.99 µM
same,MIC,[4]; Staphylococcus aureus,576 µM
same,MIC,E. coli [5],16 µg/mL
same,FICC (fractional inhibitory concentration of the test compound),E. coli [6],0.252
same,Outcome,E. coli [6],additive (>0.5 to ≤4.0 as additive (no interaction))
same,FICM (MICMcheckerboard/MICM),E. coli [6],0.75
same,FICI (fractional inhibitory concentration index),E. coli [6],1.002
CCn1cc(C(=O)O)c(=O)c2cc(F)c(N3CCN(C(=O)CN4CCOCC4)CC3)cc21 [7b],MIC,[1]; Escherichia coli,143 µM
same,MIC,[2]; [15],> 1150 µM
same,MIC,"P. aeruginosa (PAO1); Pseudomonas aeruginosa, PAO1",860 µM
same,MIC,E. faecalis (ATCC 19433); [16],8.95 µM
same,MIC,[3],1.67 µM
same,MIC,E. coli (W3110); Escherichia coli,71.7 µM
same,MIC,S. aureus (CCUG1800T); Staphylococcus aureus,4.47 µM
same,MIC,[4]; Staphylococcus aureus,287 µM
same,MIC,E. coli [5],32 µg/mL
same,FICC (fractional inhibitory concentration of the test compound),E. coli [6],0.5
same,Outcome,E. coli [6],additive (>0.5 to ≤4.0 as additive (no interaction))
same,FICM (MICMcheckerboard/MICM),E. coli [6],0.0313
same,FICI (fractional inhibitory concentration index),E. coli [6],0.5313
CCn1cc(C(=O)O)c(=O)c2cc(F)c(N3CCN(CN4C(=O)C(=O)c5cc(F)ccc54)CC3)cc21 [20a],MIC,[1]; norfloxacin-resistant clinical isolate,16.11 µM
same,PG integrity,B. subtilis DSM402 [7],came close to the cutoff value; also recorded: intact
same,MIC,[2],8.05 µM
same,MIC,P. aeruginosa (PAO1),17.12 µM
same,MIC,E. faecalis (ATCC 19433),3.02 µM
same,MIC M. tuberculosis (MC26020),[3],64.45 µM
same,protein localization MraY,[8],neither compound affected the localization; also recorded: rough
same,DAPI,"E. coli W3110; 1x MIC, 1 h, DNA condensation",condensed
same,phase contrast,E. coli W3110; [17],dark
same,FM4-64,"E. coli W3110; 1x MIC, 1 h, membrane stain",smooth
same,gyrase inhibition,E. coli W3110; [18],yes
same,membrane damage,E. coli W3110; [18],no
same,protein localization PonA,[9],neither compound affected the localization; also recorded: septal
same,GlpT,E. coli BCB472,smooth
same,concentration (MIC against B. subtilis DSM402),"B. subtilis DSM402 [10]; Tab. S13, concentrations represent MIC values",16.11 µM
same,"μM (concentration used, 1x MIC)",B. subtilis DSM402 [10],16.11 µM
same,MIC,E. coli (W3110),3.02 µM
same,concentration (MIC against E. coli W3110),"E. coli (W3110); Tab. S11, concentrations represent MIC values",3.02 µM
same,MIC,S. aureus (CCUG1800T),8.05 µM
same,protein localization MurG,[11],distinct MurG clusters all over the cells; also recorded: patchy
same,MIC,[4],>1031.3 µM
same,protein localization PbpB,[12],neither compound affected the localization; also recorded: smooth
same,DAPI,"B. subtilis DSM402 [13]; 1x MIC, 1 h, DNA condensation",condensed
same,phase contrast,B. subtilis DSM402 [13]; [17],dark
same,FM4-64,"B. subtilis DSM402 [13]; 1x MIC, 1 h, membrane stain",patchy
same,gyrase inhibition,B. subtilis DSM402 [13]; [19],yes
same,membrane damage,B. subtilis DSM402 [13]; [19],yes
same,MreB mobility,MreB in B. subtilis MW10,much smaller clusters and more clusters per cell; also recorded: mobile with static foci
same,CWB inhibited?,[14],yes ^b
"CN[C@H](CC(C)C)C(=O)N[C@H]1C(=O)N[C@@H](CC(N)=O)C(=O)N[C@H]2C(=O)N[C@H]3C(=O)N[C@H](C(=O)N[C@H](C(=O)O)c4cc(O)cc(O)c4-c4cc3ccc4O)[C@H](O)c3ccc(c(Cl)c3)Oc3cc2cc(c3O[C@@H]2O[C@H](CO)[C@@H](O)[C@H](O)[C@H]2O[C@H]2C[C@](C)(N)[C@H](O)[C@H](C)O2)Oc2ccc(cc2Cl)[C@H]1O [Van, vancomycin, reference compound]",PG integrity,B. subtilis DSM402 [7],compromised
same,protein localization MraY,[8],rough
same,protein localization PonA,[9],septal
same,"μM (concentration used, 1x MIC)",B. subtilis DSM402 [10],0.68 µM
same,protein localization MurG,[11],patchy/dispersed
same,protein localization PbpB,[12],smooth
same,MreB mobility,MreB in B. subtilis MW10,static with foci
same,CWB inhibited?,[14],yes
